Measured values: the NIST ThermoML archive (doi:10.1016/j.jct.2009.05.004)

Assay: mn = molality of the nth substance listed, in mol/kg
Conditions: Liquid, Vibrating tube method

[Br-].[Br-].[Zn+2] [zinc bromide] + CCO
Conditions | mass density [kg/m3]
333.15 K, 25621 kPa, m1 = 0.3043 | 825.37
333.15 K, 29810 kPa, m1 = 0.4384 | 848.46
333.15 K, 29875 kPa, m1 = 1.49 | 995.4
333.15 K, 29941 kPa, m1 = 0.05681 | 791.79
333.15 K, 34256 kPa, m1 = 0.3043 | 832.31
333.15 K, 34920 kPa, m1 = 0.4384 | 852.42
333.15 K, 34965 kPa, m1 = 1.49 | 999.47
333.15 K, 39957 kPa, m1 = 1.49 | 1003.26
333.16 K, 1604 kPa, m1 = 1.887 | 1020.71
333.16 K, 5024 kPa, m1 = 0.3043 | 806.15
333.16 K, 10325 kPa, m1 = 0.3043 | 811.46
333.16 K, 14730 kPa, m1 = 0.4384 | 835.35
333.16 K, 14913 kPa, m1 = 0.9305 | 905.9
333.16 K, 15014 kPa, m1 = 0.05681 | 778.76
333.16 K, 29941 kPa, m1 = 0.3043 | 828.93
333.16 K, 30014 kPa, m1 = 1.887 | 1047.6
333.16 K, 35068 kPa, m1 = 0.05681 | 795.79
333.16 K, 39745 kPa, m1 = 0.3043 | 836.38
333.16 K, 39787 kPa, m1 = 0.1696 | 816.47
333.16 K, 39824 kPa, m1 = 0.4384 | 855.99
333.17 K, 1074 kPa, m1 = 0.4384 | 821.64
333.17 K, 25080 kPa, m1 = 0.9305 | 915
333.17 K, 39803 kPa, m1 = 0.9305 | 926.52
333.17 K, 39921 kPa, m1 = 0.05681 | 799.36
333.18 K, 9721 kPa, m1 = 0.1696 | 791.08
333.18 K, 14944 kPa, m1 = 0.1696 | 796.06
333.18 K, 19908 kPa, m1 = 0.1696 | 800.57
333.18 K, 19971 kPa, m1 = 1.887 | 1038.86
333.18 K, 25143 kPa, m1 = 1.887 | 1043.47
333.18 K, 29806 kPa, m1 = 0.1696 | 808.92
333.18 K, 34946 kPa, m1 = 0.1696 | 812.92
333.2 K, 24905 kPa, m1 = 0.1696 | 804.89
353.12 K, 1215 kPa, m1 = 0.1696 | 762.79
353.12 K, 4885 kPa, m1 = 0.9305 | 876.1
353.12 K, 24736 kPa, m1 = 0.4384 | 827.02
353.12 K, 29724 kPa, m1 = 0.4384 | 831.58
353.12 K, 34818 kPa, m1 = 0.1696 | 796.87
353.12 K, 40086 kPa, m1 = 0.9305 | 910.04
353.13 K, 19976 kPa, m1 = 0.4384 | 822.41
353.13 K, 29922 kPa, m1 = 1.887 | 1029.35
353.13 K, 34919 kPa, m1 = 0.9305 | 905.88
353.13 K, 35245 kPa, m1 = 0.05681 | 780.23
353.14 K, 5032 kPa, m1 = 0.3043 | 786.89
353.14 K, 5065 kPa, m1 = 0.05681 | 750.01
353.14 K, 9866 kPa, m1 = 0.1696 | 772.71
353.14 K, 9945 kPa, m1 = 1.887 | 1009.26
353.14 K, 19983 kPa, m1 = 0.1696 | 783.31
353.14 K, 25841 kPa, m1 = 0.3043 | 808.62
353.14 K, 34738 kPa, m1 = 1.887 | 1033.52
353.14 K, 39852 kPa, m1 = 0.3043 | 820.61
353.15 K, 1306 kPa, m1 = 0.9305 | 871.91
353.15 K, 1451 kPa, m1 = 0.05681 | 745.7
353.15 K, 1574 kPa, m1 = 0.3043 | 782.83
353.15 K, 1687 kPa, m1 = 1.49 | 948.01
353.15 K, 5032 kPa, m1 = 1.49 | 951.99
353.15 K, 10024 kPa, m1 = 0.05681 | 755.67
353.15 K, 10024 kPa, m1 = 1.49 | 957.68
353.15 K, 10145 kPa, m1 = 0.3043 | 792.67
353.15 K, 15624 kPa, m1 = 1.49 | 963.72
353.15 K, 19924 kPa, m1 = 0.05681 | 766.16
353.15 K, 19957 kPa, m1 = 1.49 | 968.14
353.15 K, 20412 kPa, m1 = 0.3043 | 803.4
353.15 K, 25214 kPa, m1 = 1.49 | 973.21
353.15 K, 29658 kPa, m1 = 1.49 | 977.25
353.15 K, 29952 kPa, m1 = 0.3043 | 812.36
353.15 K, 30014 kPa, m1 = 0.05681 | 775.72
353.15 K, 34984 kPa, m1 = 1.49 | 981.78
353.15 K, 39958 kPa, m1 = 1.49 | 985.72
353.15 K, 39984 kPa, m1 = 0.05681 | 784.05
353.16 K, 4839 kPa, m1 = 0.1696 | 767.04
353.16 K, 9987 kPa, m1 = 0.9305 | 881.84
353.16 K, 15412 kPa, m1 = 0.05681 | 761.52
353.16 K, 15624 kPa, m1 = 0.3043 | 798.54
353.16 K, 24888 kPa, m1 = 0.1696 | 788.05
353.16 K, 34658 kPa, m1 = 0.3043 | 816.41
353.16 K, 34826 kPa, m1 = 0.4384 | 835.96
353.16 K, 39714 kPa, m1 = 1.887 | 1037.55
353.17 K, 4861 kPa, m1 = 0.4384 | 806.08
353.17 K, 14799 kPa, m1 = 0.1696 | 778.02
353.17 K, 14872 kPa, m1 = 1.887 | 1014.63
353.17 K, 19935 kPa, m1 = 0.9305 | 892.23
353.17 K, 24932 kPa, m1 = 0.05681 | 771.05
353.17 K, 29746 kPa, m1 = 0.1696 | 792.5
353.17 K, 39702 kPa, m1 = 0.1696 | 800.82
353.18 K, 9743 kPa, m1 = 0.4384 | 811.63
353.18 K, 14964 kPa, m1 = 0.9305 | 887.17
353.18 K, 29738 kPa, m1 = 0.9305 | 901.43
353.19 K, 1518 kPa, m1 = 0.4384 | 802.12
353.19 K, 19828 kPa, m1 = 1.887 | 1019.76
353.19 K, 24834 kPa, m1 = 0.9305 | 896.96
353.19 K, 39796 kPa, m1 = 0.4384 | 839.94
353.2 K, 1878 kPa, m1 = 1.887 | 999.87
353.2 K, 4878 kPa, m1 = 1.887 | 1003.45
353.2 K, 24815 kPa, m1 = 1.887 | 1024.64
353.21 K, 14513 kPa, m1 = 0.4384 | 816.8
373.12 K, 1190 kPa, m1 = 0.4384 | 780.46
373.12 K, 1697 kPa, m1 = 1.887 | 977.46
373.12 K, 5014 kPa, m1 = 1.887 | 981.85
373.12 K, 9878 kPa, m1 = 0.4384 | 791.75
373.12 K, 29863 kPa, m1 = 0.1696 | 775.41
373.12 K, 29926 kPa, m1 = 1.887 | 1010.28
373.12 K, 29956 kPa, m1 = 0.4384 | 814.15
373.13 K, 4952 kPa, m1 = 0.05681 | 729.35
373.13 K, 4965 kPa, m1 = 0.1696 | 746.64
373.13 K, 9897 kPa, m1 = 1.887 | 988.07
373.13 K, 14946 kPa, m1 = 1.887 | 994.16
373.13 K, 20065 kPa, m1 = 1.887 | 1000
373.13 K, 24795 kPa, m1 = 0.4384 | 808.88
373.13 K, 24847 kPa, m1 = 0.1696 | 770.29
373.14 K, 1612 kPa, m1 = 0.1696 | 742.13
